Laboratory results taken from ChEMBL document CHEMBL4004849, “Tetrazolylmethyl quinolines: Design, docking studies, synthesis, anticancer and antifungal analyses” (2017).
In brackets after ≈: the same amount, converted by molar mass. Activity calls are given as the source filed them. The calls are words filed in the database; no cut-off is given here.

Assays:
Type in all cases: functional
NCI-H23 = assay: Growth inhibition of human NCI-H23 cells at 10^-5 M incubated for 48 hrs by sulforhodamine B assay relative to control
OVCAR-4 = assay: Growth inhibition of human OVCAR4 cells at 10^-5 M incubated for 48 hrs by sulforhodamine B assay relative to control
786-0 = assay: Growth inhibition of human 786-0 cells at 10^-5 M incubated for 48 hrs by sulforhodamine B assay relative to control
SR = assay: Growth inhibition of human SR cells at 10^-5 M incubated for 48 hrs by sulforhodamine B assay relative to control
T47D = assay: Growth inhibition of human T47D cells at 10^-5 M incubated for 48 hrs by sulforhodamine B assay relative to control
SF-295 = assay: Growth inhibition of human SF295 cells at 10^-5 M incubated for 48 hrs by sulforhodamine B assay relative to control
SNB-19 = assay: Growth inhibition of human SNB19 cells at 10^-5 M incubated for 48 hrs by sulforhodamine B assay relative to control
Malme-3M = assay: Growth inhibition of human MALME-3M cells at 10^-5 M incubated for 48 hrs by sulforhodamine B assay relative to control
MDA-MB-435 = assay: Growth inhibition of human MDA-MB-435 cells at 10^-5 M incubated for 48 hrs by sulforhodamine B assay relative to control
MDA-MB-231 = assay: Growth inhibition of human MDA-MB-231/ATCC cells at 10^-5 M incubated for 48 hrs by sulforhodamine B assay relative to control
OVCAR-8 = assay: Growth inhibition of human OVCAR8 cells at 10^-5 M incubated for 48 hrs by sulforhodamine B assay relative to control
OVCAR-3 = assay: Growth inhibition of human OVCAR3 cells at 10^-5 M incubated for 48 hrs by sulforhodamine B assay relative to control
SNB-75 = assay: Growth inhibition of human SNB75 cells at 10^-5 M incubated for 48 hrs by sulforhodamine B assay relative to control
ACHN = assay: Growth inhibition of human ACHN cells at 10^-5 M incubated for 48 hrs by sulforhodamine B assay relative to control
M14 = assay: Growth inhibition of human M14 cells at 10^-5 M incubated for 48 hrs by sulforhodamine B assay relative to control
HL-60(TB) = assay: Growth inhibition of human HL-60(TB) cells at 10^-5 M incubated for 48 hrs by sulforhodamine B assay relative to control
UACC-62 = assay: Growth inhibition of human UACC62 cells at 10^-5 M incubated for 48 hrs by sulforhodamine B assay relative to control
SK-MEL-28 = assay: Growth inhibition of human SK-MEL-28 cells at 10^-5 M incubated for 48 hrs by sulforhodamine B assay relative to control
TK-10 = assay: Growth inhibition of human TK10 cells at 10^-5 M incubated for 48 hrs by sulforhodamine B assay relative to control
Aspergillus fumigatus [1] = assay: Antifungal activity against Aspergillus fumigatus at 100 ug/ml by disc diffusion method; conditions: read-out: IZ
OVCAR-5 = assay: Growth inhibition of human OVCAR5 cells at 10^-5 M incubated for 48 hrs by sulforhodamine B assay relative to control
NCI-H460 = assay: Growth inhibition of human NCI-H460 cells at 10^-5 M incubated for 48 hrs by sulforhodamine B assay relative to control
UACC-257 = assay: Growth inhibition of human UACC257 cells at 10^-5 M incubated for 48 hrs by sulforhodamine B assay relative to control
KM12 = assay: Growth inhibition of human KM12 cells at 10^-5 M incubated for 48 hrs by sulforhodamine B assay relative to control
BT-549 = assay: Growth inhibition of human BT549 cells at 10^-5 M incubated for 48 hrs by sulforhodamine B assay relative to control
HCT-15 = assay: Growth inhibition of human HCT15 cells at 10^-5 M incubated for 48 hrs by sulforhodamine B assay relative to control
MDA-MB-468 = assay: Growth inhibition of human MDA-MB-468 cells at 10^-5 M incubated for 48 hrs by sulforhodamine B assay relative to control
UO-31 = assay: Growth inhibition of human UO31 cells at 10^-5 M incubated for 48 hrs by sulforhodamine B assay relative to control
LOX IMVI = assay: Growth inhibition of human LOXIMVI cells at 10^-5 M incubated for 48 hrs by sulforhodamine B assay relative to control
SF-539 = assay: Growth inhibition of human SF539 cells at 10^-5 M incubated for 48 hrs by sulforhodamine B assay relative to control
NCI/ADR-RES = assay: Growth inhibition of human NCI-ADR-RES cells at 10^-5 M incubated for 48 hrs by sulforhodamine B assay relative to control
Aspergillus fumigatus [2] = assay: Antifungal activity against Aspergillus fumigatus after 24 hrs by serial dilution method
Candida albicans [3] = assay: Antifungal activity against Candida albicans at 100 ug/ml by disc diffusion method; conditions: read-out: IZ
Hs-578T = assay: Growth inhibition of human Hs 578T cells at 10^-5 M incubated for 48 hrs by sulforhodamine B assay relative to control
HCC 2998 = assay: Growth inhibition of human HCC2998 cells at 10^-5 M incubated for 48 hrs by sulforhodamine B assay relative to control
SW-620 = assay: Growth inhibition of human SW620 cells at 10^-5 M incubated for 48 hrs by sulforhodamine B assay relative to control
SK-MEL-5 = assay: Growth inhibition of human SK-MEL-5 cells at 10^-5 M incubated for 48 hrs by sulforhodamine B assay relative to control
MCF7 = assay: Growth inhibition of human MCF7 cells at 10^-5 M incubated for 48 hrs by sulforhodamine B assay relative to control
K562 = assay: Growth inhibition of human K562 cells at 10^-5 M incubated for 48 hrs by sulforhodamine B assay relative to control
SK-MEL-2 = assay: Growth inhibition of human SK-MEL-2 cells at 10^-5 M incubated for 48 hrs by sulforhodamine B assay relative to control
SK-OV-3 = assay: Growth inhibition of human SKOV3 cells at 10^-5 M incubated for 48 hrs by sulforhodamine B assay relative to control
COLO 205 = assay: Growth inhibition of human COLO205 cells at 10^-5 M incubated for 48 hrs by sulforhodamine B assay relative to control
EKVX = assay: Growth inhibition of human EKVX cells at 10^-5 M incubated for 48 hrs by sulforhodamine B assay relative to control
Candida albicans [4] = assay: Antifungal activity against Candida albicans after 24 hrs by serial dilution method
SN12C = assay: Growth inhibition of human SN12C cells at 10^-5 M incubated for 48 hrs by sulforhodamine B assay relative to control

SMILES: Cc1ccc2nc(Cl)c(Cn3nnc(CSc4ccccc4)n3)cc2c1
- growth inhibition (GI) (NCI-H23): Active
- growth inhibition (GI) (OVCAR-4): Active
- growth inhibition (GI) (786-0): Active
- growth inhibition (GI) (SR): Active
- growth inhibition (GI) (T47D): Active
- growth inhibition (GI) (SF-295): Active
- growth inhibition (GI) (SNB-19): Active
- growth inhibition (GI) (Malme-3M): Active
- growth inhibition (GI) (MDA-MB-435): Active
- growth inhibition (GI) (MDA-MB-231): Active
- growth inhibition (GI) (OVCAR-8): Active
- growth inhibition (GI) (OVCAR-3): Active
- growth inhibition (GI) (SNB-75): Active
- growth inhibition (GI) (ACHN): Active
- growth inhibition (GI) (M14): Active
- growth inhibition (GI) (HL-60(TB)): Active
- growth inhibition (GI) (UACC-62): Active
- growth inhibition (GI) (SK-MEL-28): Active
- growth inhibition (GI) (TK-10): Active
- zone of inhibition at 100 µg/mL (Aspergillus fumigatus [1]): 18 mm
- growth inhibition (GI) (OVCAR-5): Active
- growth inhibition (GI) (NCI-H460): Active
- growth inhibition (GI) (UACC-257): Active
- growth inhibition (GI) (KM12): Active
- growth inhibition (GI) (BT-549): Active
- growth inhibition (GI) (HCT-15): Active
- growth inhibition (GI) (MDA-MB-468): Active
- growth inhibition (GI) (UO-31): Active
- growth inhibition (GI) (LOX IMVI): Active
- growth inhibition (GI) (SF-539): Active
- growth inhibition (GI) (NCI/ADR-RES): Active
- MIC (Aspergillus fumigatus [2]): 25 µg/mL (≈ 65.5 µM)
- zone of inhibition at 100 µg/mL (Candida albicans [3]): 12 mm
- growth inhibition (GI) (Hs-578T): Active
- growth inhibition (GI) (HCC 2998): Active
- growth inhibition (GI) (SW-620): Active
- growth inhibition (GI) (SK-MEL-5): Active
- growth inhibition (GI) (MCF7): Active
- growth inhibition (GI) (K562): Active
- growth inhibition (GI) (SK-MEL-2): Active
- growth inhibition (GI) (SK-OV-3): Active
- growth inhibition (GI) (COLO 205): Active
- growth inhibition (GI) (EKVX): Active
- MIC (Candida albicans [4]): 10 µg/mL (≈ 26.2 µM)
- growth inhibition (GI) (SN12C): Active

SMILES: Clc1nc2ccccc2cc1Cn1nnnc1Cc1ccccc1
- growth inhibition (GI) (NCI-H23): Active
- growth inhibition (GI) (OVCAR-4): Active
- growth inhibition (GI) (786-0): Active
- growth inhibition (GI) (SR): Active
- growth inhibition (GI) (T47D): Active
- growth inhibition (GI) (SF-295): Active
- growth inhibition (GI) (SNB-19): Active
- growth inhibition (GI) (Malme-3M): Active
- growth inhibition (GI) (MDA-MB-435): Active
- growth inhibition (GI) (MDA-MB-231): Active
- growth inhibition (GI) (OVCAR-8): Active
- growth inhibition (GI) (OVCAR-3): Active
- growth inhibition (GI) (SNB-75): Active
- growth inhibition (GI) (ACHN): Active
- growth inhibition (GI) (M14): Active
- growth inhibition (GI) (HL-60(TB)): Active
- growth inhibition (GI) (UACC-62): Active
- growth inhibition (GI) (SK-MEL-28): Active
- growth inhibition (GI) (TK-10): Active
- zone of inhibition at 100 µg/mL (Aspergillus fumigatus [1]): 14 mm
- growth inhibition (GI) (OVCAR-5): Active
- growth inhibition (GI) (NCI-H460): Active
- growth inhibition (GI) (UACC-257): Active
- growth inhibition (GI) (KM12): Active
- growth inhibition (GI) (BT-549): Active
- growth inhibition (GI) (HCT-15): Active
- growth inhibition (GI) (MDA-MB-468): Active
- growth inhibition (GI) (UO-31): Active
- growth inhibition (GI) (LOX IMVI): Active
- growth inhibition (GI) (SF-539): Active
- growth inhibition (GI) (NCI/ADR-RES): Active
- MIC (Aspergillus fumigatus [2]): 50 µg/mL (≈ 149 µM)
- zone of inhibition at 100 µg/mL (Candida albicans [3]): 10 mm
- growth inhibition (GI) (Hs-578T): Active
- growth inhibition (GI) (HCC 2998): Active
- growth inhibition (GI) (SW-620): Active
- growth inhibition (GI) (SK-MEL-5): Active
- growth inhibition (GI) (MCF7): Active
- growth inhibition (GI) (K562): Active
- growth inhibition (GI) (SK-MEL-2): Active
- growth inhibition (GI) (SK-OV-3): Active
- growth inhibition (GI) (COLO 205): Active
- growth inhibition (GI) (EKVX): Active
- MIC (Candida albicans [4]): 25 µg/mL (≈ 74.4 µM)
- growth inhibition (GI) (SN12C): Active
